1 compound from publication PMC7069095, “A cell-permeable peptide-based PROTAC against the oncoprotein CREPT proficiently inhibits pancreatic cancer” (Theranostics, 2020) can be followed below.

Non-standard residues stand in square brackets, D forms with d. Residues, ends and D or L forms follow the SMILES beside them. Hyp = O=C(O)[C@@H]1C[C@@H](O)CN1; Ahx = NCCCCCC(=O)O

In experiment [1] the test system is Panc-1 cells. Kind of experiment: Colony formation. It counts as cell-based. Conditions: 500 cells per well, 10 days, than the control cells. How it is done: Cells were seeded into 6-well plates (500 cells per well) and cultured for 10 days, then washed with PBS and stained with 0.1% crystal violet. The number of colonies was counted by ImageJ and presented as the mean ± standard deviation (SD) from three individual experiments.

In experiment [2] the target is T1, ubiquitinated CREPT in Panc-1 cells (Homo sapiens, UniProt Q9NQG5).
T1 construct: endogenous protein level of CREPT in Panc-1, AsPc-1 and MIA-PaCa-2 cells; endogenous in cells; host or cells: Panc-1, AsPc-1, MIA PaCa-2
T1 sequence (Q9NQG5 1-326): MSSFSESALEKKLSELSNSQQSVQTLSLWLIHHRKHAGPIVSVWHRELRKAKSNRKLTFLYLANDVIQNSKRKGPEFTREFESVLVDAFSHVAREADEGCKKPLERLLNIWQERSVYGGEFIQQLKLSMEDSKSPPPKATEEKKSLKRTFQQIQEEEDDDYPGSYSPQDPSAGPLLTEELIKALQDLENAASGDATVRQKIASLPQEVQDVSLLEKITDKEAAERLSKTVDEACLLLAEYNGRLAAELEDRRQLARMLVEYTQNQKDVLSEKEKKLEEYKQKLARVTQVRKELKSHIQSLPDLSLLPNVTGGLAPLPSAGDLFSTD
Kind of experiment: Endogenous IP of CREPT with ubiquitin (Co-IP). It counts as cell-based. Conditions: 10 μM peptide for 24 h. The method, then: (§1) For exogenous immunoprecipitation assays, HEK293T cells were plated in 60 mm dishes and then transfected with the indicated plasmids. After 24 h, cells were harvested using RIPA buffer (50 mM Tris-HCl pH 8.0, 2 mM EDTA pH 8.0, 150 mM NaCl, 1% NP-40, 0.5% sodium deoxycholate, 0.1% SDS) with mixed protease inhibitors. Cell lysates were incubated with 2 μg of the indicated antibodies and 30 μL of protein A/G-Sepharose beads at 4 °C overnight. Beads were eluted five times with lysis buffer (50 mM Tris-HCl pH 7.6, 1 mM EDTA pH 8.0, 165 mM NaCl, 0.5% NP-40), and thereafter, a western blot assay was performed to analyze the association by using the indicated antibodies. Western blot was performed as previously reported. Anti-β-actin and anti-Flag antibodies were purchased from Sigma. Anti-Myc antibody was purchased from Santa Cruz Biotechnology. Antibody against CREPT was produced in the laboratory.
In addition, a Co-IP experiment was performed in Panc-1 cells treated with 10 μM PRTC, PRTC-m or PRTC-v for 24 h. […] In the absence of MG132, the level of ubiquitinated CREPT was further increased by PRTC (Figure 6C, compare lane 1 and lane 2).
Figure 6 The degradation of CREPT by PRTC is dependent on its VHL ligand. (A) Immunoblot of CREPT following 24 h incubation with different dosages of PRTC or PRTC-v in Panc-1 cells. (B) Immunoblot of CREPT exposed to 10 μM PRTC or PRTC-v for different time points in Panc-1 cells. (C) Endogenous IP experiment of CREPT with ubiquitin treated with 10 μM PTRC, PTRC-m or PTRC-v in Panc-1 cells. IP: CREPT, IB: Anti-ubiquitin.

Experiment [3] deals with T2, endogenous CREPT protein in MIA PaCa-2 cells (Homo sapiens, UniProt Q9NQG5).
T2 construct: endogenous protein level of CREPT in Panc-1, AsPc-1 and MIA-PaCa-2 cells; endogenous in cells; host or cells: Panc-1, AsPc-1, MIA PaCa-2
T2 sequence (Q9NQG5 1-326): T1 sequence (Q9NQG5 1-326)
Kind of experiment: Western blot of endogenous CREPT (degradation). The conditions noted are these: 24 h incubation. It counts as cell-based. The method, then: as §1
(§2) To address whether PRTC could induce CREPT degradation, we examined the endogenous protein level of CREPT in Panc-1, AsPc-1 and MIA-PaCa-2 cells in the presence of different dosages of PRTC. […] Consistently, treatment with PRTC led to decreases in CREPT protein at different times (Figure 5B, S3A). […] To further visualize the degradation process, we stained the endogenous CREPT protein with an antibody against CREPT in the cells treated with FITC-labeled PRTC.
Figure S3. PRTC induces CREPT degradation. […]
(Immunoblotting shows a protein as a band on a membrane.)

In experiment [4] the target is T3, endogenous CREPT protein in Panc-1 cells (Homo sapiens, UniProt Q9NQG5).
T3 construct: endogenous protein level of CREPT in Panc-1, AsPc-1 and MIA-PaCa-2 cells; endogenous in cells; host or cells: Panc-1, AsPc-1, MIA PaCa-2
T3 sequence (Q9NQG5 1-326): T1 sequence (Q9NQG5 1-326)
Kind of experiment: Western blot of endogenous CREPT (degradation). It counts as cell-based. The method, then: as §1, §2
Figure 5 PRTC induces the ubiquitination and proteasome- dependent degradation of the endogenous CREPT protein. (A) Immunoblot of CREPT following 24 h incubation with different dosages of PRTC or PRTC-m in Panc-1 cells. (B) Immunoblot of CREPT exposed to 10 μM PRTC or PRTC-m for different times in Panc-1 cells. (C) Western blot analysis of CREPT following 24 h incubation with 10 μM PTRC in Panc-1 cells. MG132 is an inhibitor of proteasome activity. (D) Immunofluorescence visualization of Panc-1 cells after treatment with PRTC for 24 h. Cells were stained with anti-CREPT antibody. Scale bars, 20 μm.

For the next experiment, the system named is Panc-1 xenograft tumors. In words: Xenograft tumor model. It counts as in vivo. The conditions noted are these: female Balb/c nude mice, 10 mg/kg intraperitoneal every 2 days for 4 weeks, n=5, in comparison with control mice. How it is done: For the xenograft model, 5×10^6 wild-type Panc-1 cells or CREPT knockout Panc-1 cells were subcutaneously injected into 4-week-old female Balb/c nude mice, which were purchased from Beijing Vital River Laboratory Animal Technology Co., Ltd. Each experimental group consisted of five mice. Mice bearing tumors were randomly divided into two groups and administered via intraperitoneal injection control solvent (0.9% saline) or PRTC (dissolved in 0.9% saline, 10 mg/kg) every 2 days for 4 weeks. The body weight of mice were measured every week after treated with 0.9% saline or PRTC. Tumor volume was measured by using the formula V = (a × b^2)/2 (V is volume, a is the length of the tumor, b is the width of the tumor).

In experiment [5] the test system is Panc-1 cells. In words: Cell viability assay (CCK-8). It counts as cell-based. Conditions: 10 μM, CCK-8, OD450, three individual experiments. The method, then: Cells were seeded into 96-well plates (1000 cells per well) and cultured for the indicated times. Cell viability was evaluated using a CCK-8 kit (Solarbio, Beijing, China). The value of OD450 was calculated by spectrophotometer and presented as the mean ± standard deviation (SD) from three individual experiments.

Consider `CC[C@H](C)[C@H](N)C(=O)N[C@@H](Cc1ccc(O)cc1)C(=O)N1C[C@H](O)C[C@H]1C(=O)N[C@@H](C)C(=O)N[C@@H](CC(C)C)C(=O)NCCCCCC(=O)N[C@@H](CCCCN)C(=O)N[C@@H](CC(=O)O)C(=O)N[C@H](C(=O)N[C@@H](CC(C)C)C(=O)N[C@@H](CO)C(=O)N[C@@H](CCC(=O)O)C(=O)N[C@@H](CCCCN)C(=O)N[C@@H](CCC(=O)O)C(=O)N[C@@H](CCCCN)C(=O)N[C@@H](CCCCN)C(=O)N[C@@H](CC(C)C)C(=O)N[C@@H](CCC(=O)O)C(=O)N[C@@H](CCC(=O)O)C(=O)N[C@@H](Cc1ccc(O)cc1)C(=O)N[C@@H](CCCCN)C(=O)N[C@@H](CCC(N)=O)C(=O)N[C@@H](CCCCN)C(=O)N[C@@H](CC(C)C)C(=O)N[C@@H](C)C(=O)N[C@@H](CCCNC(=N)N)C(=O)N[C@H](C(=O)N[C@@H](CCCNC(=N)N)C(=O)N[C@@H](CCCNC(=N)N)C(=O)N[C@@H](CCCNC(=N)N)C(=O)N[C@@H](CCCNC(=N)N)C(=O)N[C@@H](CCCCN)C(=O)O)C(C)C)C(C)C` [PRTC] (H-IY[Hyp]AL[Ahx]KDVLSEKEKKLEEYKQKLARVRRRRK-OH; N-terminus and C-terminus assumed), for which the colony formation result with Panc-1 cells [1] is “fewer colonies”. Moreover, in experiment [2] (Co-IP experiment), the CREPT protein level entry was “significantly decreased”. For the same compound, in experiment [2] (IP: CREPT, IB: anti-ubiquitin), the “ubiquitinated CREPT proteins” value is “increased”. For the same compound, the “CREPT protein level upon different dosages” value in experiment [3] and in experiment [4] (24 h incubation) was “dramatically decreased” in each case. Further, the “CREPT protein level at different times” value in experiment [4] (10 μM or 20 μM peptide) was “decreases”. In addition, in the experiment with Panc-1 xenograft tumors, the “tumor weight and size” value was “significantly decreases”. Also, the cell proliferation result with Panc-1 cells [5] is recorded as “dramatically inhibited”.
